Assay results taken from ChEMBL document CHEMBL5131409, “Synthesis and characterization of chiral 6-azaspiro[2.5]octanes as potent and selective antagonists of the M4 muscarinic acetylcholine receptor” (Bioorg Med Chem Lett, 2022).
pIC50, pKi: −log10 of the molar value.

Key:
[1] = Selectivity ratio of IC50 for inhibition of human muscarinic acetylcholine M2 receptor to IC50 for inhibition of human muscarinic acetylcholine M4 receptor expressed in CHO cells co-expressing Gqi5 in the presence of acetylcholine at EC80 concentration by calcium mobilization assay; format: cell-based
[2] = Elimination half life in rat at 3 mg/kg, iv; format: ADME, organism-based; conditions: in vivo, read-out: beta t1/2 (converted)
[3] = AUC (0 to infinity) in rat at 3 mg/kg, iv; format: ADME, organism-based; design: time infinity, dose 3 mg/kg, route iv; conditions: in vivo
[4] = target: T1, Muscarinic acetylcholine receptor M4 (Homo sapiens, UniProt P08173); assay: Displacement of [3H]-NMS from human muscarinic acetylcholine M4 receptor expressed in CHO cell membrane by competitive binding assay; format: cell membranes
T1 sequence (P08173 whole entry): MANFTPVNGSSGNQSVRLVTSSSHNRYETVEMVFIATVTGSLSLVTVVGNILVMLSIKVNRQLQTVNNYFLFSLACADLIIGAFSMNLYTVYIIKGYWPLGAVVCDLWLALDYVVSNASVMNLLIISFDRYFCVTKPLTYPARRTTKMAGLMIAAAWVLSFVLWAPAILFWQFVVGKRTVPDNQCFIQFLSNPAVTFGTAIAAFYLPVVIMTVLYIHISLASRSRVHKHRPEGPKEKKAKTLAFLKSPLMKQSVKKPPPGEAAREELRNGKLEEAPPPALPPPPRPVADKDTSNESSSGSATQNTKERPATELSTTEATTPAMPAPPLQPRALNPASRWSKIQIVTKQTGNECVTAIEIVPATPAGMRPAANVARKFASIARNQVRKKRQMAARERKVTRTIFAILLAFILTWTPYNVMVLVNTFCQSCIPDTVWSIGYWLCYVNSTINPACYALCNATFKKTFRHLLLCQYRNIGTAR

[5] = target: T2, Muscarinic acetylcholine receptor M2 (Rattus norvegicus, UniProt P10980); assay: Inhibition of rat muscarinic acetylcholine M2 receptor expressed in CHO cells co-expressing Gqi5 preincubated with compound followed by acetylcholine addition at EC80 concentration by calcium mobilization assay; format: functional, cell-based
T2 sequence (P10980 whole entry): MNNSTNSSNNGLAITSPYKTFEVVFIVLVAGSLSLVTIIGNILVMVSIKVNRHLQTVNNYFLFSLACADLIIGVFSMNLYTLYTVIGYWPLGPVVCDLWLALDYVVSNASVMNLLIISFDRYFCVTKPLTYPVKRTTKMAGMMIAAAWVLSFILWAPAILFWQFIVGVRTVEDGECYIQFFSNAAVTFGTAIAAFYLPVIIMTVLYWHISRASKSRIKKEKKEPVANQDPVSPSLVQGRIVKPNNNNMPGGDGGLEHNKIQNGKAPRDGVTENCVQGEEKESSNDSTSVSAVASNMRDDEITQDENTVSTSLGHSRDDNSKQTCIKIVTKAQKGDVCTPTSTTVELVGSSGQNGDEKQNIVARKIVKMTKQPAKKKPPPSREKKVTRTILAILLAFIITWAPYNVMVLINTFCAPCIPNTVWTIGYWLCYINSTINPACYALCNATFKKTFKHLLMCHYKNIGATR

CC(=O)Nc1ccc(-c2ccc(NC[C@@H]3CC34CCN(CC3CCOCC3)CC4)nn2)cc1
Ratio IC50 [1]: > 140 | half-life [2]: 8.6 h | AUC(0-inf) [3]: 202 ng·h/mL | pKi [4]: 7.36 | pIC50 [5]: < 5.00
